Assay results from US9149038B2, “4-amino-6-(heterocyclic)picolinates and 6-amino-2-(heterocyclic)pyrimidine-4-carboxylates and their use as herbicides” (Dow AgroSciences LLC, priority 2013, dated 2015).
Read-outs that look alike come from different tables or passages of the source.

Experiments:
[1] = system: Key Broadleaf Weed and Crop Species; experiment: Post-Emergent Test II: postemergent herbicidal activity, visual rating after 14 d (Table 7); format: in vivo; conditions: post-emergence, 336 h; for pest or weed control at 35 g/ha: 35 g ai/ha; for pest or weed control at 70 g/ha: 70 g ai/ha; for pest or weed control at 140 g/ha: 140 g ai/ha
In short: (§1)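 Track-sprayed young seedlings (first/second true leaf) at 187 L/ha across a 2-fold rate series from the high rate down to 1/16×. Kept in greenhouse at 23-29° C day, subirrigated. Injury rated by eye after 14 d, 0 = no injury, 100 = complete kill.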

[2] = system: Key Grass and Sedge Weeds as well as Grass Crops; experiment: Post-Emergent Test II: postemergent herbicidal activity, visual rating after 14 d (Table 8); format: in vivo; conditions: post-emergence, 336 h; for pest or weed control at 35 g/ha: 35 g ai/ha; for pest or weed control at 70 g/ha: 70 g ai/ha; for pest or weed control at 140 g/ha: 140 g ai/ha
In short: as §1

[3] = lambsquarters (Chenopodium album), read-out: Visual Growth Reduction (%) 14 Days After Application CHEAL
[4] = oilseed rape, canola (Brassica napus), read-out: Visual Growth Reduction (%) 14 Days After Application BRSNN
[5] = redroot pigweed (Amaranthus retroflexus), read-out: Visual Growth Reduction (%) 14 Days After Application AMARE
[6] = sunflower (Helianthus annuus), read-out: Visual Growth Reduction (%) 14 Days After Application HELAN
[7] = velvetleaf (Abutilon theophrasti), read-out: Visual Growth Reduction (%) 14 Days After Application ABUTH
[8] = wild poinsettia (Euphorbia heterophylla), read-out: Visual Growth Reduction (%) 14 Days After Application EPHHL
[9] = barnyardgrass (Echinochloa crus-galli), read-out: Visual Growth Reduction (%) 14 Days After Application ECHCG
[10] = giant foxtail (Setaria faberi), read-out: Visual Growth Reduction (%) 14 Days After Application SETFA
[11] = maize, corn (Zea mays), read-out: Visual Growth Reduction (%) 14 Days After Application ZEAMX
[12] = rice (Oryza sativa), read-out: Visual Growth Reduction (%) 14 Days After Application ORYSA
[13] = wheat, spring (Triticum aestivum), read-out: Visual Growth Reduction (%) 14 Days After Application TRZAS
[14] = yellow nutsedge (Cyperus esculentus), read-out: Visual Growth Reduction (%) 14 Days After Application CYPES

COC(=O)c1nc(-c2ccc(I)c3c2OC(F)(F)O3)c(F)c(N)c1Cl [Compound 79, Methyl 4-amino-3-chloro-6-(2,2-difluoro-7-iodobenzo-[d][1,3]dioxol-4-yl)-5-fluoropicolinate]
pest or weed control at 35 g/ha [1, 3]: 85 to 94%
pest or weed control at 70 g/ha [1, 3]: 85 to 94%
pest or weed control at 140 g/ha [1, 3]: 85 to 94%
pest or weed control at 35 g/ha [1, 4]: 60 to 74%
pest or weed control at 70 g/ha [1, 4]: 60 to 74%
pest or weed control at 140 g/ha [1, 4]: 60 to 74%
pest or weed control at 35 g/ha [1, 5]: 95 to 100%
pest or weed control at 70 g/ha [1, 5]: 95 to 100%
pest or weed control at 140 g/ha [1, 5]: 95 to 100%
pest or weed control at 35 g/ha [1, 6]: 85 to 94%
pest or weed control at 70 g/ha [1, 6]: 85 to 94%
pest or weed control at 140 g/ha [1, 6]: 85 to 94%
pest or weed control at 35 g/ha [1, 7]: 60 to 74%
pest or weed control at 70 g/ha [1, 7]: 75 to 84%
pest or weed control at 140 g/ha [1, 7]: 75 to 84%
pest or weed control at 35 g/ha [1, 8]: 0 to 29%
pest or weed control at 70 g/ha [1, 8]: 0 to 29%
pest or weed control at 140 g/ha [1, 8]: 0 to 29%
pest or weed control at 35 g/ha [2, 9]: 0 to 29%
pest or weed control at 70 g/ha [2, 9]: 0 to 29%
pest or weed control at 140 g/ha [2, 9]: 0 to 29%
pest or weed control at 35 g/ha [2, 10]: 0 to 29%
pest or weed control at 70 g/ha [2, 10]: 0 to 29%
pest or weed control at 140 g/ha [2, 10]: 0 to 29%
pest or weed control at 35 g/ha [2, 11]: 0 to 29%
pest or weed control at 70 g/ha [2, 11]: 0 to 29%
pest or weed control at 140 g/ha [2, 11]: 0 to 29%
pest or weed control at 35 g/ha [2, 12]: 0 to 29%
pest or weed control at 70 g/ha [2, 12]: 0 to 29%
pest or weed control at 140 g/ha [2, 12]: 0 to 29%
pest or weed control at 35 g/ha [2, 13]: 0 to 29%
pest or weed control at 70 g/ha [2, 13]: 0 to 29%
pest or weed control at 140 g/ha [2, 13]: 0 to 29%
pest or weed control at 35 g/ha [2, 14]: 0 to 29%
pest or weed control at 70 g/ha [2, 14]: 0 to 29%
pest or weed control at 140 g/ha [2, 14]: 0 to 29%

COC(=O)c1nc(-c2cc3c(cc2F)OC(F)(F)O3)nc(N)c1Cl [Compound 56]
pest or weed control at 35 g/ha [1, 3]: 0 to 29%
pest or weed control at 70 g/ha [1, 3]: 0 to 29%
pest or weed control at 140 g/ha [1, 3]: 0 to 29%
pest or weed control at 35 g/ha [1, 4]: 0 to 29%
pest or weed control at 70 g/ha [1, 4]: 0 to 29%
pest or weed control at 140 g/ha [1, 4]: 0 to 29%
pest or weed control at 35 g/ha [1, 5]: 0 to 29%
pest or weed control at 70 g/ha [1, 5]: 0 to 29%
pest or weed control at 140 g/ha [1, 5]: 0 to 29%
pest or weed control at 35 g/ha [1, 6]: 85 to 94%
pest or weed control at 70 g/ha [1, 6]: 85 to 94%
pest or weed control at 140 g/ha [1, 6]: 85 to 94%
pest or weed control at 35 g/ha [1, 7]: 0 to 29%
pest or weed control at 70 g/ha [1, 7]: 0 to 29%
pest or weed control at 140 g/ha [1, 7]: 0 to 29%
pest or weed control at 35 g/ha [1, 8]: 60 to 74%
pest or weed control at 70 g/ha [1, 8]: 95 to 100%
pest or weed control at 140 g/ha [1, 8]: 95 to 100%
pest or weed control at 35 g/ha [2, 9]: 75 to 84%
pest or weed control at 70 g/ha [2, 9]: 75 to 84%
pest or weed control at 140 g/ha [2, 9]: 95 to 100%
pest or weed control at 35 g/ha [2, 10]: 60 to 74%
pest or weed control at 70 g/ha [2, 10]: 75 to 84%
pest or weed control at 140 g/ha [2, 10]: 75 to 84%
pest or weed control at 35 g/ha [2, 11]: 45 to 59%
pest or weed control at 70 g/ha [2, 11]: 60 to 74%
pest or weed control at 140 g/ha [2, 11]: 75 to 84%
pest or weed control at 35 g/ha [2, 12]: 0 to 29%
pest or weed control at 70 g/ha [2, 12]: 0 to 29%
pest or weed control at 140 g/ha [2, 12]: 0 to 29%
pest or weed control at 35 g/ha [2, 13]: 0 to 29%
pest or weed control at 70 g/ha [2, 13]: 30 to 44%
pest or weed control at 140 g/ha [2, 13]: 30 to 44%
pest or weed control at 35 g/ha [2, 14]: 0 to 29%
pest or weed control at 70 g/ha [2, 14]: 45 to 59%
pest or weed control at 140 g/ha [2, 14]: 45 to 59%

Nc1c(F)c(-c2ccc(F)c3c2OC(F)(F)O3)nc(C(=O)O)c1Cl [Compound 77]
pest or weed control at 35 g/ha [1, 3]: 85 to 94%
pest or weed control at 70 g/ha [1, 3]: 95 to 100%
pest or weed control at 140 g/ha [1, 3]: 95 to 100%
pest or weed control at 35 g/ha [1, 4]: 75 to 84%
pest or weed control at 70 g/ha [1, 4]: 85 to 94%
pest or weed control at 140 g/ha [1, 4]: 95 to 100%
pest or weed control at 35 g/ha [1, 5]: 95 to 100%
pest or weed control at 70 g/ha [1, 5]: 95 to 100%
pest or weed control at 140 g/ha [1, 5]: 95 to 100%
pest or weed control at 35 g/ha [1, 6]: 85 to 94%
pest or weed control at 70 g/ha [1, 6]: 95 to 100%
pest or weed control at 140 g/ha [1, 6]: 95 to 100%
pest or weed control at 35 g/ha [1, 7]: 30 to 44%
pest or weed control at 70 g/ha [1, 7]: 60 to 74%
pest or weed control at 140 g/ha [1, 7]: 75 to 84%
pest or weed control at 35 g/ha [1, 8]: 0 to 29%
pest or weed control at 70 g/ha [1, 8]: 0 to 29%
pest or weed control at 140 g/ha [1, 8]: 0 to 29%
pest or weed control at 35 g/ha [2, 9]: 0 to 29%
pest or weed control at 70 g/ha [2, 9]: 0 to 29%
pest or weed control at 140 g/ha [2, 9]: 0 to 29%
pest or weed control at 35 g/ha [2, 10]: 0 to 29%
pest or weed control at 70 g/ha [2, 10]: 0 to 29%
pest or weed control at 140 g/ha [2, 10]: 0 to 29%
pest or weed control at 35 g/ha [2, 11]: 0 to 29%
pest or weed control at 70 g/ha [2, 11]: 0 to 29%
pest or weed control at 140 g/ha [2, 11]: 0 to 29%
pest or weed control at 35 g/ha [2, 12]: 0 to 29%
pest or weed control at 70 g/ha [2, 12]: 0 to 29%
pest or weed control at 140 g/ha [2, 12]: 0 to 29%
pest or weed control at 35 g/ha [2, 13]: 45 to 59%
pest or weed control at 70 g/ha [2, 13]: 60 to 74%
pest or weed control at 140 g/ha [2, 13]: 60 to 74%
pest or weed control at 35 g/ha [2, 14]: 0 to 29%
pest or weed control at 70 g/ha [2, 14]: 0 to 29%
pest or weed control at 140 g/ha [2, 14]: 0 to 29%

Nc1c(F)c(-c2ccc(I)c3c2OC(F)(F)O3)nc(C(=O)O)c1Cl [Compound 81]
pest or weed control at 35 g/ha [1, 3]: 85 to 94%
pest or weed control at 70 g/ha [1, 3]: 85 to 94%
pest or weed control at 140 g/ha [1, 3]: 85 to 94%
pest or weed control at 35 g/ha [1, 4]: 75 to 84%
pest or weed control at 70 g/ha [1, 4]: 85 to 94%
pest or weed control at 140 g/ha [1, 4]: 95 to 100%
pest or weed control at 35 g/ha [1, 5]: 95 to 100%
pest or weed control at 70 g/ha [1, 5]: 95 to 100%
pest or weed control at 140 g/ha [1, 5]: 95 to 100%
pest or weed control at 35 g/ha [1, 6]: 85 to 94%
pest or weed control at 70 g/ha [1, 6]: 85 to 94%
pest or weed control at 140 g/ha [1, 6]: 85 to 94%
pest or weed control at 35 g/ha [1, 7]: 0 to 29%
pest or weed control at 70 g/ha [1, 7]: 60 to 74%
pest or weed control at 140 g/ha [1, 7]: 75 to 84%
pest or weed control at 35 g/ha [1, 8]: 0 to 29%
pest or weed control at 70 g/ha [1, 8]: 0 to 29%
pest or weed control at 140 g/ha [1, 8]: 0 to 29%
pest or weed control at 35 g/ha [2, 9]: 0 to 29%
pest or weed control at 70 g/ha [2, 9]: 0 to 29%
pest or weed control at 140 g/ha [2, 9]: 0 to 29%
pest or weed control at 35 g/ha [2, 10]: 0 to 29%
pest or weed control at 70 g/ha [2, 10]: 0 to 29%
pest or weed control at 140 g/ha [2, 10]: 0 to 29%
pest or weed control at 35 g/ha [2, 11]: 0 to 29%
pest or weed control at 70 g/ha [2, 11]: 0 to 29%
pest or weed control at 140 g/ha [2, 11]: 0 to 29%
pest or weed control at 35 g/ha [2, 12]: 0 to 29%
pest or weed control at 70 g/ha [2, 12]: 0 to 29%
pest or weed control at 140 g/ha [2, 12]: 0 to 29%
pest or weed control at 35 g/ha [2, 13]: 0 to 29%
pest or weed control at 70 g/ha [2, 13]: 0 to 29%
pest or weed control at 140 g/ha [2, 13]: 0 to 29%
pest or weed control at 35 g/ha [2, 14]: 0 to 29%
pest or weed control at 70 g/ha [2, 14]: 0 to 29%
pest or weed control at 140 g/ha [2, 14]: 0 to 29%
